Reference: US8143025B2, “Antibodies against vascular endothelial growth factor receptor-1” (ImClone LLC, priority 2004, dated 2012)
“Also recorded” adds a separate entry of the source.

Assays:
[1] = tested on: MDA-MB-435 xenograft; test: MDA-MB-435 breast tumor xenograft; type: in vivo, mouse
Experimental: Athymic nude mice (Charles River Laboratories, Wilmington, Mass.) were injected subcutaneously in the left flank area with 2×10^6 of DU4475 cells or 5×10^6 of MDA-MB-231 and MDA-MB-435 cells mixed in Matrigel (Collaborative Research Biochemicals. Bedford, Mass.). In the DU4475 and MDA-MB-231 models, tumors were allowed to reach approximately 200 mm^3 in size and then mice were randomized into groups of 12-16 animals per group. Animals received i.p. administration of the anti-VEGFR-I antibody clones 6F9, 15F11, or 18F1 at a dose of 0.5 mg (MDA-MB-231) or 1 mg (DU4475) three times each week. In the MDA-MB-435 model, the tumor cells were implanted subcutaneously into mammary fat pad area in the mouse. After tumors grew to reach approximately 200 mm^3 in size, mice were randomized into groups of 15 animals per group and intraperitoneally administered with 0.5 mg per dose of 18F1 antibody three times each week. Mice in control groups received an equal volume of saline solution. Treatment of animals was continued for the duration of the experiment. Tumors were measured twice each week with calipers. Tumor volumes were calculated using the formula [π/6 (w1×w2×w2)], where “w1” represents the largest tumor diameter and “w2” represents the smallest tumor diameter. […] Tumor growth was evaluated approximately twice weekly, with tumor volume calculated as π/6* (Length*Width^2), where Length=longest diameter and Width=diameter perpendicular to Length. Tumor dimensions were measured with calipers. T/C % was calculated as 100*(Final Treatment Tumor Volume/Initial Treatment Tumor Volume)/(Final Control Tumor Volume/Initial Control Tumor Volume). […] The effect of treatment on tumor growth was analyzed using repeated measures analysis of variance (RM ANOVA), p<0.05 was considered significant. […] AU treatments were administered i.p. The effect of treatments on tumor growth were analyzed using repeated measures analysis of variance (RM ANOVA), p<0.05 was considered significant.

[2] = target: VEGFR-I (Homo sapiens, UniProt P17948); test: VEGFR-I phosphorylation assay, PAE-VEGFR-I cells; type: cell-based; set-up: host or cells: porcine aorta endothelial (PAE) cells; conditions: PAE-VEGFR-I transfectant, compared to untreated control, FIG. 10
Experimental: Confluent porcine aorta endothelial VEGFR-I expressing (PAE-VEGFR-I) cells and BT474 human breast carcinoma cells were cultured in serum-depleted F12 medium for 48 hours. The cells were then preincubated with anti-VEGFR-I antibody clone 18F1 at concentrations ranging from 0.1 to 30 μg/ml for 1 hour followed by stimulating with VEGF or PlGF for 5 minutes at 37° C. The cells were then rinsed with ice-cold PBS and lysed in lysis buffer (50 mM HEPES, 150 mM NaCl, 1% Triton X-100, and 10% glycerol containing 1 mM phenylmethylsulfonyl fluoride, 10 μg/ml aprotinin, 10 μg/ml leupeptin, and 1 mM sodium vanadate). Cell lysates were subjected to SDS-PAGE and transferred onto Immobilon membranes (Millipore Corp. Billerica, Mass.). […]
Autophosphorylation of the VEGFR-I induced by its ligands and resulting activation of a classical MAPK, extracellular signal-regulated protein kinases 1Z2 (ERK1Z2) and the PBK/Atk downstrean signaling pathways mediate cellular biological responses such as proliferation, motility, survival, and differentiation. The ability of an anti-VEGFR-1 antibody to inhibit phosphorylation of VEGFR-I and activation of ERK1 Z2 and the Akt kinases downstream signaling were determined by using the PAE-VEGFR-I transfectant and BT474 breast carcinoma cells. […]

VEGFR-I, sequence (P17948 27-1338): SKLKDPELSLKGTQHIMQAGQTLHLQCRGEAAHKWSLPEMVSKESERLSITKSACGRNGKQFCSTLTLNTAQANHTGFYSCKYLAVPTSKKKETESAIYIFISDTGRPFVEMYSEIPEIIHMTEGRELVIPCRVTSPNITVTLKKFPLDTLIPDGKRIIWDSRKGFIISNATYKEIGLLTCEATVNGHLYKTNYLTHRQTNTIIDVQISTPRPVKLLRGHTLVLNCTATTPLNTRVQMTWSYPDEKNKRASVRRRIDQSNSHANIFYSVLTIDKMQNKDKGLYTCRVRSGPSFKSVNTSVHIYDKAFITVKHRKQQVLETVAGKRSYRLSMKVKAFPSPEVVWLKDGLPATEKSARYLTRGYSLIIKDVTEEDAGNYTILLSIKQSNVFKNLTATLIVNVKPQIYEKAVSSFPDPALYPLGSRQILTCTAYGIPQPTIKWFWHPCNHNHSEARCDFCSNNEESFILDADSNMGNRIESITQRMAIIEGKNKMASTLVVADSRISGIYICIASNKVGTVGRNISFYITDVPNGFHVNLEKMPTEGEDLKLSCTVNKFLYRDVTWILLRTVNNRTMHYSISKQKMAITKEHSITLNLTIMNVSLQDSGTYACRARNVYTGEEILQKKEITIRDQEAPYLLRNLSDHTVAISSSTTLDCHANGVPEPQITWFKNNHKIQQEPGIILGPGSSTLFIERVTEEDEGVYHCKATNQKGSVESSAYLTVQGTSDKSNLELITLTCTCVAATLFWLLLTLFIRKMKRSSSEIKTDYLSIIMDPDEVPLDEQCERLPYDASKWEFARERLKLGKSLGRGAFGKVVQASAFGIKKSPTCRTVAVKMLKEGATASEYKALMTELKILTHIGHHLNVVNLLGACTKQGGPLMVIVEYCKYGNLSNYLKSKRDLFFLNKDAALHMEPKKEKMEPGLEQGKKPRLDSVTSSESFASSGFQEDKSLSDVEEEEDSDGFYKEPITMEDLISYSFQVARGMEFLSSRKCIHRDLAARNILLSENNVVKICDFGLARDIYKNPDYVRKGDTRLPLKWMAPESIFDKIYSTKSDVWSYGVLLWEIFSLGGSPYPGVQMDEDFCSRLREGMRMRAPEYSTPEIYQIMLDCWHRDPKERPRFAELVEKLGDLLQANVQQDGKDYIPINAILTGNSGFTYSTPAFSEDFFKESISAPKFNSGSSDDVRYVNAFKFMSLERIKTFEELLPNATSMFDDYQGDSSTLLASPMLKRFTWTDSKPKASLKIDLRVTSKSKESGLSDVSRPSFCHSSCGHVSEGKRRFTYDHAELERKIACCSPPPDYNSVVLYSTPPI

18F1: human anti-VEGFR-1 monoclonal antibody clone; VL SEQ ID NO: 16, VH SEQ ID NO: 20 [Clone 18F1]
tumor growth of the MDA-MB-435 xenograft ([1]; 0.5 or 1 mg per dose three times each week, ANOVA p<0.05, FIG. 20C): statistically significant suppression
growth of MDA-MB-435 xenograft tumors ([1]; Example 9, intraperitoneal, p<0.05, FIG. 25B): significantly (p<0.05) suppressed
PlGF-stimulated phosphorylation of VEGFR-I [2]: significantly reduced; also recorded: reduction
